{"source": "patent US11466044B2", "about": "(WAYNE STATE UNIVERSITY, priority 2017, dated 2022)", "key": {"[1]": {"test_system": "rabbit reticulocyte ribosomes", "test": "in-vitro translation assay, rabbit reticulocyte ribosomes", "assay_type": "biochemical", "settings": "mammalian cytosolic ribosomes (rabbit)"}, "M. smegmatis SZ380": {"test_system": "M. smegmatis SZ380", "test": "MIC by broth microdilution, M. smegmatis", "settings": "Mycolicibacterium smegmatis"}, "[2]": {"test_system": "Enterobacter cloacae AG290", "test": "MIC by broth microdilution, Enterobacter cloacae", "assay_type": "cell-based", "settings": "strain AG290 Enterobacter cloacae; read-out: MIC AG290 E. cloacae"}, "[3]": {"test_system": "Acinetobacter baumannii pittii AG225", "test": "MIC by broth microdilution, Acinetobacter baumannii", "assay_type": "cell-based", "settings": "strain AG225 Acinetobacter baumannii pittii"}, "MRSA": {"test_system": "MRSA", "test": "MIC by broth microdilution, MRSA isolates", "assay_type": "cell-based", "settings": "for MIC50 / MIC: Staphylococcus aureus, MRSA"}, "[4]": {"test_system": "cytosolic ribosome (human chimeric)", "assay_type": "biochemical", "source_text": "(§1) The antiribosomal activity of these compounds was investigated with cell-free translation assays using both wild type bacterial ribosomes and hybrid ribosomes carrying eukaryotic decoding A sites enabling the prediction of selectivity."}, "[5]": {"test_system": "mitochondrial ribosome (human chimeric)", "assay_type": "biochemical", "source_text": "as §1"}, "E coli wild type": {"test_system": "E coli wild type", "test": "MIC by broth microdilution, wild type E coli", "assay_type": "cell-based", "settings": "Escherichia coli"}, "N. gonorrhoeae": {"test_system": "N. gonorrhoeae", "test": "Disk diffusion, N. gonorrhoeae", "assay_type": "cell-based", "settings": "Neisseria gonorrhoeae"}, "M. abscessus": {"test_system": "M. abscessus", "test": "MIC by broth microdilution, M. abscessus", "assay_type": "cell-based", "settings": "Mycobacteroides abscessus"}, "[6]": {"test_system": "Klebsiella pneumonia AG215", "test": "MIC by broth microdilution, Klebsiella pneumonia", "assay_type": "cell-based", "settings": "Klebsiella pneumoniae; strain AG215 Klebsiella pneumonia; read-out: MIC AG215 K. pneumon"}, "[7]": {"test_system": "wild type bacterial ribosomes", "test": "in-vitro translation assay, bacterial ribosomes", "assay_type": "biochemical", "source_text": "as §1"}}, "note": "Where two headings read alike, the source gives them in different places."}
{"compound": "NC[C@@H]1O[C@H](O[C@H]2[C@@H](O)[C@H](O[C@@H]3[C@@H](O)[C@H](N)C[C@H](N)[C@H]3O[C@H]3O[C@H](CO)[C@@H](O)[C@H](O)[C@H]3N)O[C@@H]2CO)[C@H](N)[C@@H](O)[C@@H]1O", "note": "[paromomycin, reference compound]", "values": [{"measurement": "IC50", "setting": "[1]", "result": 21, "unit": "µM"}, {"measurement": "MIC", "setting": "M. smegmatis SZ380; SZ380, read-out: MIC M. smegmatis SZ380 WT, SZ380 WT, Table 5 (Example 3)", "result": 1, "unit": "µg/mL"}, {"measurement": "MIC", "setting": "M. smegmatis SZ380; SZ380, read-out: MIC SZ380 M. smegmatis, strain SZ380 Mycobacterium smegmatis", "result": 1, "unit": "µg/mL"}, {"measurement": "MIC", "setting": "[2]", "result": 2, "unit": "µg/mL"}, {"measurement": "MIC", "setting": "[3]", "result": 2, "unit": "µg/mL"}, {"measurement": "MIC50", "setting": "MRSA; read-out: MIC50 MRSA AG39", "result": "> 256", "unit": "µg/mL"}, {"measurement": "MIC50", "setting": "MRSA; read-out: MIC50 MRSA AG42", "result": "> 256", "unit": "µg/mL"}, {"measurement": "MIC", "setting": "MRSA; read-out: MIC AG039 MRSA AAC(6′)-I ANT(4′)-I", "result": "> 256", "unit": "µg/mL"}, {"measurement": "MIC", "setting": "MRSA; read-out: MIC AG042 MRSA AAC(6′)-I ANT(4′)-I APH(2′)", "result": "> 256", "unit": "µg/mL"}, {"measurement": "MIC", "setting": "MRSA; read-out: MIC MRSA AG039", "result": "> 256", "unit": "µg/mL"}, {"measurement": "MIC", "setting": "MRSA; read-out: MIC MRSA AG042", "result": "> 256", "unit": "µg/mL"}, {"measurement": "MIC50", "setting": "MRSA; strain AG38, Table 1 (Example 1), read-out: MIC50 MRSA AG38", "result": 4, "unit": "µg/mL"}, {"measurement": "MIC50", "setting": "MRSA; strain AG38, Table 1 (Example 2), read-out: MIC50 MRSA AG38", "result": 4, "unit": "µg/mL"}, {"measurement": "MIC50", "setting": "MRSA; strain AG44, Table 1 (Example 1), read-out: MIC50 MRSA AG44", "result": "4 to 8", "unit": "µg/mL"}, {"measurement": "MIC50", "setting": "MRSA; strain AG44, Table 1 (Example 2), read-out: MIC50 MRSA AG44", "result": "4 to 8", "unit": "µg/mL"}, {"measurement": "MIC", "setting": "MRSA; clinical isolate AG038, Table 1 (Example 3), read-out: MIC MRSA AG038", "result": 4, "unit": "µg/mL"}, {"measurement": "MIC", "setting": "MRSA; clinical isolate AG038, read-out: MIC AG038 MRSA", "result": 4, "unit": "µg/mL"}, {"measurement": "MIC", "setting": "MRSA; clinical isolate AG044, Table 1 (Example 3), read-out: MIC MRSA AG044", "result": "4 to 8", "unit": "µg/mL"}, {"measurement": "MIC", "setting": "MRSA; clinical isolate AG044, read-out: MIC AG044 MRSA", "result": "4 to 8", "unit": "µg/mL"}, {"measurement": "MIC50 MRSA AG39", "setting": "MRSA; strain AG39, Table 1 (Example 2)", "result": ">256", "unit": "µg/mL"}, {"measurement": "MIC50 MRSA AG42", "setting": "MRSA; strain AG42, Table 1 (Example 2)", "result": ">256", "unit": "µg/mL"}, {"measurement": "IC50", "setting": "[4]; cytosolic, Table 3 (Example 1), read-out: IC50 Cyt", "result": 31, "unit": "µM"}, {"measurement": "IC50", "setting": "[4]; cytosolic, Table 3 (Example 2), read-out: IC50 Cyt", "result": 31, "unit": "µM"}, {"measurement": "IC50", "setting": "[4]; cytosolic, Table 4 (Example 3), read-out: IC50 Cyt", "result": 31, "unit": "µM"}, {"measurement": "IC50", "setting": "[4]; ribosomes with a human cytosolic decoding site, read-out: IC50 Cytosolic", "result": 31, "unit": "µM"}, {"measurement": "IC50", "setting": "[5]; mitochondrial, Table 3 (Example 1), read-out: IC50 Mit", "result": 140, "unit": "µM"}, {"measurement": "IC50", "setting": "[5]; mitochondrial, Table 3 (Example 2), read-out: IC50 Mit", "result": 140, "unit": "µM"}, {"measurement": "IC50", "setting": "[5]; mitochondrial, Table 4 (Example 3), read-out: IC50 Mit", "result": 140, "unit": "µM"}, {"measurement": "IC50", "setting": "[5]; ribosomes with a human mitochondrial decoding site, read-out: IC50 Mitoch.", "result": 140, "unit": "µM"}, {"measurement": "MIC", "setting": "E coli wild type; AG006 wt, Table 2 (Example 1), read-out: MIC E coli AG006 wt", "result": "1 to 2", "unit": "µg/mL"}, {"measurement": "MIC", "setting": "E coli wild type; AG102 wt, Table 2 (Example 1), read-out: MIC E coli AG102 wt", "result": 1, "unit": "µg/mL"}, {"measurement": "MIC", "setting": "E coli wild type; AG160 wt, Table 2 (Example 1), read-out: MIC E coli AG160 wt", "result": "2 to 4", "unit": "µg/mL"}, {"measurement": "MIC", "setting": "E coli wild type; ATCC25922, strain AG212 E. coli (ATCC25922), read-out: MIC AG212 E. coli", "result": "2 to 4", "unit": "µg/mL"}, {"measurement": "MIC50", "setting": "E coli wild type; BM13 (AG06) wt, Table 2A (Example 2), read-out: MIC50 E coli BM13 (AG06) wt", "result": "2 to 4", "unit": "µg/mL"}, {"measurement": "MIC", "setting": "E coli wild type; E. coli strain pH430, WT, read-out: MIC pH430 WT", "result": "1 to 2", "unit": "µg/mL"}, {"measurement": "MIC", "setting": "E coli wild type; WT, Table 3 (Example 1), read-out: MIC WT", "result": "1 to 2", "unit": "µg/mL"}, {"measurement": "MIC", "setting": "E coli wild type; WT, Table 3 (Example 2), read-out: MIC WT", "result": "1 to 2", "unit": "µg/mL"}, {"measurement": "MIC", "setting": "E coli wild type; WT, Table 4 (Example 3), read-out: MIC E. coli WT", "result": "1 to 2", "unit": "µg/mL"}, {"measurement": "MIC", "setting": "E coli wild type; WT, Table 5 (Example 3), read-out: MIC E. coli WT", "result": "1 to 2", "unit": "µg/mL"}, {"measurement": "MIC", "setting": "E coli wild type; clinical isolate AG001, WT, read-out: MIC AG001 E. coli WT", "result": 2, "unit": "µg/mL"}, {"measurement": "MIC", "setting": "E coli wild type; clinical isolate AG001, Table 1 (Example 3), read-out: MIC E coli AG001", "result": "16 to 32", "unit": "µg/mL"}, {"measurement": "MIC", "setting": "E coli wild type; clinical isolate AG003, Table 1 (Example 3), read-out: MIC E coli AG003", "result": "8 to 16", "unit": "µg/mL"}, {"measurement": "MIC", "setting": "E coli wild type; clinical isolate AG055, WT, read-out: MIC AG055 E. coli WT", "result": 2, "unit": "µg/mL"}, {"measurement": "MIC", "setting": "E coli wild type; clinical isolate AG055, Table 1 (Example 3), read-out: MIC E coli AG055", "result": 8, "unit": "µg/mL"}, {"measurement": "MIC", "setting": "E coli wild type; clinical isolate AG160 WT, Table 2 (Example 4), read-out: MIC AG160 E. coli WT", "result": "2 to 4", "unit": "µg/mL"}, {"measurement": "MIC", "setting": "E coli wild type; engineered strain pH430 WT, Table 2 (Example 4), read-out: MIC pH430 E. coli WT", "result": "1 to 2", "unit": "µg/mL"}, {"measurement": "MIC50", "setting": "E coli wild type; read-out: MIC50 E coli pH430 WT", "result": "1 to 2", "unit": "µg/mL"}, {"measurement": "MIC", "setting": "E coli wild type; read-out: MIC E coli AG006 Wild type, AG006 Wild type, Table 2 (Example 3)", "result": 2, "unit": "µg/mL"}, {"measurement": "MIC", "setting": "E coli wild type; read-out: MIC E coli AG104 Wild type, AG104 Wild type, Table 2 (Example 3)", "result": 2, "unit": "µg/mL"}, {"measurement": "MIC50", "setting": "E coli wild type; strain AG01, Table 1 (Example 1), read-out: MIC50 E coli AG01", "result": "2 to 4", "unit": "µg/mL"}, {"measurement": "MIC50", "setting": "E coli wild type; strain AG01, Table 1 (Example 2), read-out: MIC50 E coli AG01", "result": "2 to 4", "unit": "µg/mL"}, {"measurement": "MIC50", "setting": "E coli wild type; strain AG03, Table 1 (Example 1), read-out: MIC50 E coli AG03", "result": 4, "unit": "µg/mL"}, {"measurement": "MIC50", "setting": "E coli wild type; strain AG03, Table 1 (Example 2), read-out: MIC50 E coli AG03", "result": 4, "unit": "µg/mL"}, {"measurement": "MIC50", "setting": "E coli wild type; strain AG55, Table 1 (Example 1), read-out: MIC50 E coli AG55", "result": "2 to 4", "unit": "µg/mL"}, {"measurement": "MIC50", "setting": "E coli wild type; strain AG55, Table 1 (Example 2), read-out: MIC50 E coli AG55", "result": "2 to 4", "unit": "µg/mL"}, {"measurement": "zone of inhibition at 25 nmol/disc", "setting": "N. gonorrhoeae", "result": 9, "unit": "mm"}, {"measurement": "MIC", "setting": "M. abscessus; ATCC19977, read-out: MIC M. abscessus ATCC 19977 WT", "result": 8, "unit": "µg/mL"}, {"measurement": "MIC", "setting": "M. abscessus; read-out: MIC M. abscessus ATCC", "result": 8, "unit": "µg/mL"}, {"measurement": "MIC", "setting": "M. abscessus; read-out: MIC M. abscessus Clin. Isol.", "result": 32, "unit": "µg/mL"}, {"measurement": "MIC", "setting": "M. abscessus; read-out: MIC M. abscessus clinical isolate", "result": 32, "unit": "µg/mL"}, {"measurement": "MIC", "setting": "M. abscessus; read-out: MIC M. abscessus engineered Δeis2", "result": 4, "unit": "µg/mL"}, {"measurement": "MIC", "setting": "[6]", "result": 1, "unit": "µg/mL"}, {"measurement": "IC50", "setting": "[7]; Mycobacterium smegmatis ribosomes, read-out: IC50 Bacterial", "result": 0.04, "unit": "µM"}, {"measurement": "IC50", "setting": "[7]; bacterial ribosome, Table 3 (Example 1), read-out: IC50 Bac", "result": 0.04, "unit": "µM"}]}
